Patent publication US5814488A (priority 1993, dated 1998)

Legend:
[1] = clinical use; cited from earlier work
[2] = Ototoxicity to guinea pig: cochleatoxicity
Escherichia coli = experiment: Comparison of MIC and MBC (Tables 5 and 6); assay type: cell-based
Excerpt: (§1) […]. […] […]

Pseudomonas sp. = experiment: Comparison of MIC and MBC (Tables 5 and 6); assay type: cell-based; details: Pseudomonas sp.
Excerpt: as §1

Klebsiella pneumoniae = experiment: Comparison of MIC and MBC (Tables 5 and 6); assay type: cell-based
Excerpt: as §1

S. aureus = experiment: Comparison of MIC and MBC (Tables 5 and 6); assay type: cell-based; details: S. aureus, 31 strains
Excerpt: as §1

Shigella = experiment: Comparison of MIC and MBC (Tables 5 and 6); assay type: cell-based
Excerpt: as §1

[3] = Nephrotoxicity to rat after i.m. administration; details: gentamicin at 150 MKD and 100 MKD from seventh day
[4] = Table 5, 20 strains, unit assumed
[5] = Table 6, 20 strains, in µg/mL (unit assumed)
[6] = Table 6, 20 strains, unit assumed
[7] = Table 5, number 2, unit assumed
[8] = Table 5, 10 strains, unit assumed

For Gentamicin, the side-effects [1] is listed as “side-effects of ototoxicity and nephrotoxicity”, the hair cell morphology ([2]; high dosage) is listed as “large number of necrotized hair cell, even stand cell and nerve cell were observed” and the auditory function ([2]; high dosages) is listed as “nearly all the auditory function of the animals were lost”. For the same substance, the hair cell morphology ([2]; low and middle dosages) was “scattered necrotized hair cell and scar formation were observed”, the ABR threshold ([2]; middle dosages) was “increases of ABR threshold were observed” and the MBC50 (Escherichia coli; [4]) was 0.5 µg/mL. It also gave an MBC90 (Escherichia coli; [4]) of 1 µg/mL, an MIC50 (Escherichia coli; [4]) of 0.125 µg/mL and an MIC90 (Escherichia coli; [4]) of 0.25 µg/mL. The MBC range (Escherichia coli; [5]) was 0.125-8, the MBC90 (Escherichia coli; [6]) was 1 µg/mL and the MBC50 (Pseudomonas sp.; [7]) was 2 µg/mL. For the same substance, the MBC90 (Pseudomonas sp.; [7]) was 8 µg/mL, the MIC50 (Pseudomonas sp.; [7]) was 2 µg/mL and the MIC90 (Pseudomonas sp.; [7]) was 4 µg/mL. The MBC range (Pseudomonas sp.; [5]) was 0.5-16, the MBC90 (Pseudomonas sp.; [6]) was 8 µg/mL and the MBC50 (Klebsiella pneumoniae; [4]) was 0.25 µg/mL. It also gave an MBC90 (Klebsiella pneumoniae; [4]) of 1 µg/mL, an MIC50 (Klebsiella pneumoniae; [4]) of 0.125 µg/mL and an MIC90 (Klebsiella pneumoniae; [4]) of 0.25 µg/mL. For the same substance, the MBC range (Klebsiella pneumoniae; [5]) was 0.062-2, the MBC90 (Klebsiella pneumoniae; [6]) was 1 µg/mL and the MBC50 (S. aureus; Table 5, unit assumed) was 0.5 µg/mL. For the same substance, the MBC90 (S. aureus; Table 5, unit assumed) was 2 µg/mL, the MIC50 (S. aureus; Table 5, unit assumed) was 0.125 µg/mL and the MIC90 (S. aureus; Table 5, unit assumed) was 0.5 µg/mL. The MBC range (S. aureus; Table 6, in µg/mL (unit assumed)) was 0.062, the MBC90 (S. aureus; Table 6, unit assumed) was 2 µg/mL and the MBC50 (Shigella; [8]) was 0.25 µg/mL. For the same substance, the MBC90 (Shigella; [8]) was 1 µg/mL, the MIC90 (Shigella; [8]) was 0.25 µg/mL and the MBC range (Shigella; Table 6, 10 strains, in µg/mL (unit assumed)) was 0.125-1. For the same substance, the MBC90 (Shigella; Table 6, 10 strains, unit assumed) was 1 µg/mL and the dead animals [3] was “gradually increased”.
